Assay results published in patent US5436252A, “5-aryl-3H-1,2,4-triazol-3-ones and their use in the treatment of neurodegenerative disorders” (Merrell Dow Pharmaceuticals Inc., priority 1990, dated 1995).
Where two headings read alike, the source gives them in different places.

Tests used:
[1] = Antagonism of Quinolinic Acid Induced Seizures (clonic-tonic seizures after icv quinolinic acid); format: in vivo, mice; conditions: for responders at 64 mg/kg / ED50: Mus musculus; for responders at 64 mg/kg: 64 mg/Kg IP, animals protected/tested, quinolinic acid 7.7 μg icv, read-out: Mice Protected 64 mg/Kg IP
[2] = Hippocampal neurodegeneration after carotid artery occlusion (CA1 damage score); format: in vivo, Male mongolian gerbils
Description: Male mongolian gerbils (Tumblebrook Farms) weighing 45 to 60 gms were used for the experiments measuring hippocampal neurodegeneration after carotid artery occlusion. The gerbils were housed in small groups and allowed ad lib access to food and water prior to surgery. Following administration of drug, the gerbils were anesthetized with halothane (3.5%) and prepared for surgery.
An incision was made in the midline region of the neck and both carotid arteries were exposed and isolated from surrounding tissue. In sham operated animals the wounds were then closed and the animals were allowed to recover. In the hypoxic group the isolated carotid arteries were occluded for 5 minutes with 7 mm Mayfield aneurysm clips. Loss of blood flow to the cortex was confirmed by observation with an opthalmoscope of the blanching of the radial arteries in the retina of the ipsilateral eye. After 5 minutes the clips were removed and the gerbils were placed in their home cages and allowed to recover. After 7 days the gerbils were sacrificed by an overdose of chloral hydrate and perfused intracardially with 10 ml of 1% […] followed by 15 ml of 10% buffered formalin. […] Damage to the CA1 region was assessed by 3 observers who were blind to the previous treatment of the gerbil. This damage was assessed according to the scale below. […]

[3] = mice; background; cited from earlier work
[4] = gerbils; background; cited from earlier work
[5] = administration to rodents; background; cited from earlier work
[6] = 0.5 h, IP, 30', read-out: ED50 IP

COc1ccc(-c2nn(C)c(=O)n2C)cc1OC1CCCC1
responders at 64 mg/kg [1]: 60%

Cn1nc(-c2ccccc2Cl)n(C)c1=O [2-ClC6 H4, CH3, CH3]
responders at 64 mg/kg [1]: 60%

Cn1c(-c2ccccc2Cl)n[nH]c1=O [2-ClC6 H4, H, CH3, 5-(2-chlorophenyl)-2,4-dihydro-4-methyl-3H-1,2,4-triazol-3-one]
ED50 [1, 6]: 64.9 mg/kg | responders at 64 mg/kg [1]: 60% | ED50 ([1]; IP, 2 hr, read-out: ED50 IP): > 64 mg/kg

CCn1nc(-c2cccs2)n(C)c1=O [2-Thienyl, C2 H5, CH3, 5-(2-thienyl)-2,4-dihydro-2-ethyl-4-methyl-3H-1,2,4-triazol-3-one]
ED50 ([1]; IP, range, time not given, printed near the Mice Protected column, read-out: ED50 IP): 8 to 64 mg/kg

Cn1c(-c2ccc(Cl)c(Cl)c2)n[nH]c1=O [3,4-Cl2 C6 H3, H, CH3, 5-(3,4-dichlorophenyl)-2,4-dihydro-4-methyl-3H-1,2,4-triazol-3-one]
Mice Protected ([1]; @ 32 mg/Kg IP, (60')): 5/10 | ED50 [1, 6]: < 8 mg/kg | ED50 ([1]; PO, time not given, read-out: ED50 PO): > 16 mg/kg

COc1ccc(-c2n[nH]c(=O)n2C)cc1OC1CCCC1 [3-(cyclo-C5 H9 O)--4-CH3 OC6 H3, H, CH3]
responders at 64 mg/kg [1]: 20%

CCCCOc1cc(-c2nn(C)c(=O)n2C)ccc1OC [3-(n-C4 H9 O)--4-CH3 OC6 H3, CH3, CH3]
responders at 64 mg/kg [1]: 60%

CCCCOc1cc(-c2n[nH]c(=O)n2C)ccc1OC [3-(n-C4 H9 O)--4-CH3 OC6 H3, H, CH3, 5-[3-(n-butoxy)-4-methoxyphenyl]-2,4-dihydro-4-methyl-3H-1,2,4-triazol-3-one]
responders at 64 mg/kg [1]: 70%

CCn1c(-c2ccc(Cl)cc2)nn(C)c1=O [4-ClC6 H4, CH3, C2 H5, 5-(4-Chlorophenyl)-2,4-dihydro-4-ethyl-2-methyl-3H-1,2,4-triazol-3-one]
ED50 [1, 6]: 25.9 mg/kg | ED50 ([1]; 0.5 h, PO, 30', read-out: ED50 PO): 29.9 mg/kg | ED50 ([1]; 1 h, IP, 60', read-out: ED50 IP): 17.2 mg/kg | ED50 ([1]; IP, 2 hr, read-out: ED50 IP): 39.2 mg/kg | ED50 ([1]; PO, 4 hr, read-out: ED50 PO): 52.3 mg/kg | ED50 ([1]; PO, 24 hr, read-out: ED50 PO): > 128 mg/kg | reduction of damage ([2]; 40 mg/kg i.p.): 66%

Cn1nc(-c2ccc(Cl)cc2)n(C)c1=O [4-ClC6 H4, CH3, CH3, 5-(4-chlorophenyl)-2,4-dihydro-2,4-dimethyl-3H-1,2,4-triazol-3-one]
responders at 64 mg/kg [1]: 80%

CCn1c(-c2ccc(Cl)cc2)n[nH]c1=O [4-ClC6 H4, H, C2 H5, 5-(4-Chlorophenyl)2,4-dihydro-4-ethyl-3H-1,2,4-triazol-3-one]
ED50 [1, 6]: 51 mg/kg

Cn1c(-c2ccc(Cl)cc2)n[nH]c1=O [4-ClC6 H4, H, CH3]
responders at 64 mg/kg [1]: 60%

Cn1c(-c2ccncc2)n[nH]c1=O [4-Pyridyl, H, CH3, 2,4-Dihydro-4-methyl-5-(4-pyridinyl)-3H-1,2,4-triazol-3-one]
responders at 64 mg/kg [1]: 30%

CCn1nc(-c2ccccc2)n(C)c1=O [C6 H5, C2 H5, CH3]
responders at 64 mg/kg [1]: 50%

Cn1nc(-c2ccccc2)n(C)c1=O [C6 H5, CH3, CH3]
responders at 64 mg/kg [1]: 50%

Cn1c(-c2ccccc2)n[nH]c1=O [C6 H5, H, CH3]
responders at 64 mg/kg [1]: 50%

C[C@]12N[C@H](Cc3ccccc31)c1ccccc12 [MK-801, (S)-10,11-dihydro-5-methyl-5H-dibenzo(a,d)cyclohepten-5,10-imine]
reduction of apparent damage ([2]; 5 mg/kg, 30 minutes prior to ligation): 28% | antagonism of quinolinic acid seizures (in words) [3]: antagonize the seizures induced in mice by quinolinic acid | antagonism of hippocampal neurodegeneration (in words) [4]: antagonize hippocampal neurodegeneration after carotid artery occlusion in gerbils

C=C(C)[C@H]1CN[C@H](C(=O)O)[C@H]1CC(=O)O [kainic acid]
neuronal degeneration (in words) [5]: shown to cause neuronal degeneration

O=C(O)c1cccnc1C(=O)O [quinolinic acid, reference compound]
clonic-tonic seizures caused in otherwise untreated mice ([1]; 7.7 μg in 5 μl saline icv): 90-100% | neuronal degeneration (in words) [5]: shown to cause neuronal degeneration

N[C@@H](Cn1oc(=O)[nH]c1=O)C(=O)O [quisqualic acid]
neuronal degeneration (in words) [5]: shown to cause neuronal degeneration
